Consider one molecule from patent US12103946B2, “Steroid compounds as Treg modulators and uses thereof” (New York University, priority 2018, dated 2024).

Data set [1] relates to naïve CD4+ T cells (Th1 or Th2 cells). The data set can be described thus: In vitro Th1 and Th2 differentiation (IFN-γ, IL-4, T-bet, GATA3). Format: cell-based, mouse. To be noted: 20 μM, day 5. As for the experimental part:
In Vitro T Cell Culture. Naïve CD4^+ (CD62L^+ CD44^− CD25^− CD4^+) T cells were isolated from the spleens and the lymph nodes of mice of designated genotypes with FACS sorting. For certain experiments, naïve CD4^+ T cells were enriched using naïve CD4^+ T cell isolation kits (Miltenyi). Naïve CD4^+ T cells (40,000 cells) were cultured in a 96-well plate pre-coated with hamster IgG (MP Biomedicals) in T cell medium (RPMI, 10% fetal bovine serum, 25 mM glutamine, 55 μM 2-mercaptoethanol, 100 U/mL penicillin, […] streptomycin) supplemented with 0.25 μg/mL anti-CD3 (clone 145-2C11) and 1 μg/mL anti-CD28 (clone 37.51). For Th0 culture, T cells were cultured with the addition of 100 U/mL of IL-2 (PEPROTECH). For Th1 cell differentiation, T cells were cultured with the addition of 100 U/mL of IL-2, 10 μg/mL of anti-IL-4 (clone 11B11) and 10 ng/mL of IL-12 (PEPROTECH). For Th2 cell differentiation, T cells were cultured with the addition of 10 μg/mL of anti-IFNγ (clone XMG1.2) and 10 ng/mL of IL-4 (R&D Systems). For Th17 cell differentiation, T cells were cultured with the addition of 10 ng/mL of IL-6 (eBioscience) and 0.5 ng/mL of TGF-β (PEPROTECH). […]
Flow Cytometry. […] All flow cytometry analyses were performed on an LSR II flow cytometer (BD) and data were analyzed with FlowJo software (TreeStar).

Data set [2] concerns CD4+ T cells. The text has this: (§1) Representative FACS plots of CD4^+ T cells cultured for 3 days and stained intracellularly for FoxP3 (e). Quantification of FoxP3^+ and viable T cells after 3-day culture (f) (n=2/group). n, number of biologically independent samples. Data are representative of two independent experiments (b, d). Data in (c) are shown as the mean±standard deviation.
Naïve CD4^+ T cells were isolated from FoxP3-IRES-GFP mice. d, Flow cytometry of CD4^+ T cells stained intracellularly for FoxP3. Naïve CD4^+ T cells isolated from WT, CNS1, CNS2 or CNS3 knockout mice (n=3/group) were cultured with anti-CD3/28 and IL-2, LCA (20 μM), TGF-β (0.05 ng/ml) and additional retinoic acid (RA; 1 ng/ml). e and f, Flow cytometry (e) and its quantification (f) of CD4^+ T cells stained intracellularly for FoxP3. […] Data are representative of two independent experiments (c, d). Data are shown as the mean±standard deviation by unpaired t-test with 2-tailed p-value.
Flow Cytometry. Cells harvested from in vitro culture or in vivo mice experiments were stimulated with 50 ng/mL PMA (Phorbol 12-myristate 13-acetate, Sigma) and 1 μM ionomycin (Sigma) in the presence of GolgiPlug (BD) for 4 h to determine cytokine expression. After stimulation, cells were stained with cell surface marker antibodies and LIVE/DEAD Fixable dye, Aqua, to exclude dead cells, fixed and permeabilized with a FoxP3/Transcription factor staining kit (eBioscience), followed by staining with cytokine- and/or transcription factor-specific antibodies. All flow cytometry analyses were performed on an LSR II flow cytometer (BD) and data were analyzed with FlowJo software (TreeStar).

Data set [3] has as its system CD4+ T cells. The data set can be described thus: TCR activation markers (CD25, CD69, Nur77, CD44). It counts as cell-based, mouse.
From the text: as §1

For data set [4], the target named is T1, recombinant human RORγt ligand-binding domain (LBD) (Homo sapiens, UniProt P51449).
T1 sequence (P51449 269-508 limits assumed): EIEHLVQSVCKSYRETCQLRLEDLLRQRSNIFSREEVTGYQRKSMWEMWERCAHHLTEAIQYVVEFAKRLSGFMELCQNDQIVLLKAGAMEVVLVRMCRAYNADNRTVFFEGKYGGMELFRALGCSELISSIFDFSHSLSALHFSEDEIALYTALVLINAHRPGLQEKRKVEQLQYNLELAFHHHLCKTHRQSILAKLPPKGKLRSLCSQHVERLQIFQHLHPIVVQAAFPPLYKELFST
Put plainly: Microscale thermophoresis assay. To be noted: MST, read-out: equilibrium dissociation constant (Kd). How it is done: (§2) We next examined if 3-oxoLCA physically interacts with the RORγt protein in vitro. A microscale thermophoresis (MST) assay was performed with recombinant human RORγt ligand-binding domain (LBD). […] Next, we examined if 3-oxoLCA modulates the transcriptional activity of RORγt. We assayed the effect of the bile acids on firefly luciferase expression directed by a fusion protein of RORγt and Gal4-DBD (DNA-binding domain) in human embryonic kidney (HEK) 293 cells^14.
Microscale Thermophoresis Assay. The binding affinity of the compounds with RORγ ligand-binding domain (LBD) was analyzed by microscale thermophoresis (MST). Purified RORγ-LBD was labeled with the Monolith NT™ Protein Labeling Kit RED (NanoTemper Technologies). Serially-diluted compounds, with concentrations of 1 mM to 20 nM, were mixed with 55 nM labeled RORγ-LBD at room temperature and loaded into Monolith™ standard-treated capillaries. Binding was measured by monitoring the thermophoresis with 20% LED power and ‘Medium’ MST power on a Monolith NT.115 instrument (Nano Temper Technologies) with the following time setting: 5s Fluo, Before; 20s MST On; and 5s Fluo, After. Kd values were fitted using the NT Analysis software (Nano Temper Technologies).
For orientation: Microscale thermophoresis detects binding through changes in fluorescence in a small temperature gradient.

Data set [5] has as its system fusion protein of RORγt and Gal4-DBD. Put plainly: RORγt luciferase reporter assay in HEK293 cells. Format: cell-based, human. To be noted: ML209 2 μM, bile acids 10 μM. As for the experimental part: (§3) Data are shown as the mean±standard deviation by unpaired t-test with 2-tailed p-value.
as §2
Background: In a reporter assay the amount or activity of a reporter protein is the signal.

A short description of data set [6]: Bile acid quantification in mouse cecal contents by UPLC-MS. To be noted: mice fed 0.3% (w/w) 3-oxoLCA chow for one week.
From the text: as §3

Data set [7] deals with colon lamina propria Th17 cells. Put plainly: Citrobacter rodentium infection of germ-free mice. Format: in vivo, mouse. To be noted: germ-free B6 mice, C. rodentium, 0.3% diet. From the text:
For the box plots (a, b), the three horizontal lines of the box represent the third quartile, median and first quartile, respectively from top to bottom. […] Mice were fed an autoclaved diet with or without 3-oxoLCA (0.3%) (n=9 mice/group).

Data set [8] can be described thus: Measurement of lipophilicity (octanol/ammonium bicarbonate partitioning, LC-MS). To be noted: n-octanol / 50 mM ammonium bicarbonate, pH 8.
Procedure: Measurement of lipophilicity. Partitioning Method: 2 μL of 10 mM stock solutions of each target compound was added to a 1 mL each of 50 mM ammonium bicarbonate (pH=8), and 1 mL of n-octanol in an Eppendorf tube. The resulting two-phase mixture was vortexed and then shaken for 18 h at 20° C. The two phases were then carefully separated into the aqueous sample (bottom layer), and organic sample (top-layer) and placed separately in autosampler vials and analyzed by LC-MS/MS. LC-MS Method: a Thermo q-Exactive Plus LC-MS equipped with an Ultimate 3000 HPLC was operated in negative ion mode after optimized to detect the [M− H]^− of the bile acids. […] A Dikma Inspire C8 column (3 μm particle size, 100 mm length, 4.6 mm ID) was used for analysis. Each injection was 5 μL, and a constant flow rate of 0.400 L/min was used. The gradient started at 0% B and was held constant for 2 minutes. Then the mobile phase composition was linearly changed to 100% B over 8 minutes and held at 100% for the following 5 minutes. The mobile phase composition was changed to 0% B over the following 0.1 minutes and the system was allowed to equilibrate to starting conditions over 1.9 minutes. Standards of all targets were used to establish retention times. Better than 2 ppm mass accuracy was obtained on all measurements. The LC-MS analysis was done in triplicate, while the partitioning was done once for each target's [M− H]^− ion. Calculation of log D: the total response of target in octanol was divided by the total response in the aqueous phase to get a partitioning coefficient. Then, log base 10 was taken and reported.

One may read the Kd as the constant that tells how readily two partners part at equilibrium. The logD is lipophilicity at a set pH, counting ionised and neutral species. In the case of `C[C@H](CCC(=O)O)[C@H]1CC[C@H]2[C@@H]3CC[C@@H]4CC(=O)CC[C@]4(C)[C@H]3CC[C@]12C` [3-oxoLCA, 3-oxolithocholic acid], the “T cell differentiation into Th1 or Th2 cells” value in data set [1] is “neither compound affected T cell differentiation into Th1 or Th2 cells”. For the same molecule, in the data set on CD4+ T cells [2], the cell viability result was “do not significantly affect cell proliferation, cell viability”. The “T cell receptor (TCR)-mediated activation” value with CD4+ T cells [3] is on record as “do not significantly affect cell proliferation, cell viability, or T cell activation”. For the same molecule, in data set [4], the Kd was about 1 µM. The RORγt reporter activity entry in data set [5] was “significantly reduced the RORγt reporter activity”. Besides, the “average concentration in cecal contents” value in data set [6] is reported as 24 picomol/mg of wet mass. In addition, the “Th17 cell induction in the colon” value in data set [7] is recorded as “reduced Th17 cell induction in the colons of germ-free B6 mice infected with Citrobacter rodentium”. The molecule also came in with a logD at 18 h in data set [8] of 2.4.
